Numbers after ± are expanded uncertainties. One block for each compound: values may come before it.
Tests used:
[1] = 298.15 K; 101.33 kPa; Liquid; Vibrating tube method
[2] = excess molar enthalpy (molar enthalpy of mixing); xn = mol fraction of the nth substance listed; details: 298.15 K, 101.33 kPa, Liquid, Flow calorimetry

mass density [1]: 735.69 ± 0.4 kg/m3
SMILES: COC(C)(C)C [2-methoxy-2-methylpropane]

mass density [1]: 660.3 ± 0.41 kg/m3
SMILES: CCC(C)CC [3-methylpentane]

excess molar enthalpy ([2]; x2 = 0.0499): 0.0137 ± 0.000382 kcal/mol
excess molar enthalpy ([2]; x2 = 0.0999): 0.0259 ± 0.000502 kcal/mol
excess molar enthalpy ([2]; x2 = 0.1501): 0.0382 ± 0.000621 kcal/mol
excess molar enthalpy ([2]; x2 = 0.2): 0.0482 ± 0.000717 kcal/mol
excess molar enthalpy ([2]; x2 = 0.2495): 0.0559 ± 0.000789 kcal/mol
excess molar enthalpy ([2]; x2 = 0.3004): 0.0629 ± 0.00086 kcal/mol
excess molar enthalpy ([2]; x2 = 0.3502): 0.0683 ± 0.000932 kcal/mol
excess molar enthalpy ([2]; x2 = 0.3999): 0.072 ± 0.000956 kcal/mol
excess molar enthalpy ([2]; x2 = 0.4505): 0.0745 ± 0.00098 kcal/mol
excess molar enthalpy ([2]; x2 = 0.4997): 0.0752 ± 0.001 kcal/mol
excess molar enthalpy ([2]; x2 = 0.55): 0.0741 ± 0.00098 kcal/mol
excess molar enthalpy ([2]; x2 = 0.5996): 0.0717 ± 0.000956 kcal/mol
excess molar enthalpy ([2]; x2 = 0.6502): 0.0684 ± 0.000932 kcal/mol
excess molar enthalpy ([2]; x2 = 0.7003): 0.063 ± 0.00086 kcal/mol
excess molar enthalpy ([2]; x2 = 0.75): 0.0561 ± 0.000813 kcal/mol
excess molar enthalpy ([2]; x2 = 0.7999): 0.0476 ± 0.000717 kcal/mol
excess molar enthalpy ([2]; x2 = 0.8501): 0.0377 ± 0.000621 kcal/mol
excess molar enthalpy ([2]; x2 = 0.8999): 0.0263 ± 0.000502 kcal/mol
excess molar enthalpy ([2]; x2 = 0.95): 0.0128 ± 0.000359 kcal/mol
SMILES: CCC(C)CC [3-methylpentane] + COC(C)(C)C

mass density [1]: 726.31 ± 0.42 kg/m3
SMILES: CCCCCCCCCC [decane]

mass density [1]: 745.38 ± 0.42 kg/m3
SMILES: CCCCCCCCCCCC [dodecane]

Reference: the NIST ThermoML archive (doi:10.1016/j.tca.2004.12.026)
